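Interpolation was linear, between the two tested concentrations surrounding the appropriate level; five concentrations were tested over 48 hours in 96-well plates. The concentration for full growth arrest is given as TGI.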
Legend:
Assay in all cases: NCI-60 cell line screen, 48 h
SF-539 CNS = test system: SF-539 CNS
HCT-116 colon = test system: HCT-116 colon
HL-60(TB) leukemia = test system: HL-60(TB) leukemia
DMS 114 small cell lung = test system: DMS 114 small cell lung
NCI-H460 lung = test system: NCI-H460 lung
HCC-2998 colon = test system: HCC-2998 colon
SK-OV-3 ovarian = test system: SK-OV-3 ovarian
786-0 renal = test system: 786-0 renal
OVCAR-4 ovarian = test system: OVCAR-4 ovarian
HOP-62 NSCLC = test system: HOP-62 NSCLC
UACC-62 melanoma = test system: UACC-62 melanoma
K-562 leukemia = test system: K-562 leukemia
OVCAR-8 ovarian = test system: OVCAR-8 ovarian
NCI-H226 lung = test system: NCI-H226 lung
A498 renal = test system: A498 renal
U251 CNS = test system: U251 CNS
SN12C renal = test system: SN12C renal
IGROV1 ovarian = test system: IGROV1 ovarian
SK-MEL-5 melanoma = test system: SK-MEL-5 melanoma
TK-10 renal = test system: TK-10 renal
UO-31 renal = test system: UO-31 renal
COLO 205 colon = test system: COLO 205 colon
EKVX NSCLC = test system: EKVX NSCLC
NCI-H522 lung = test system: NCI-H522 lung
HOP-18 NSCLC = test system: HOP-18 NSCLC
SNB-75 CNS = test system: SNB-75 CNS
HOP-92 NSCLC = test system: HOP-92 NSCLC
RXF-631 renal = test system: RXF-631 renal
M19-MEL melanoma = test system: M19-MEL melanoma
KM20L2 colon = test system: KM20L2 colon
HCT-15 colon = test system: HCT-15 colon
MOLT-4 leukemia = test system: MOLT-4 leukemia
SK-MEL-28 melanoma = test system: SK-MEL-28 melanoma
M14 melanoma = test system: M14 melanoma
ACHN renal = test system: ACHN renal
XF 498 CNS = test system: XF 498 CNS
SK-MEL-2 melanoma = test system: SK-MEL-2 melanoma
MALME-3M melanoma = test system: MALME-3M melanoma
SNB-19 CNS = test system: SNB-19 CNS
LOX IMVI melanoma = test system: LOX IMVI melanoma
SF-268 CNS = test system: SF-268 CNS
DMS 273 small cell lung = test system: DMS 273 small cell lung
SW-620 colon = test system: SW-620 colon
CCRF-CEM leukemia = test system: CCRF-CEM leukemia
A549 NSCLC = test system: A549 NSCLC
RPMI-8226 leukemia = test system: RPMI-8226 leukemia
RXF 393 renal = test system: RXF 393 renal
NCI-H23 lung = test system: NCI-H23 lung
OVCAR-3 ovarian = test system: OVCAR-3 ovarian
HT29 colon = test system: HT29 colon
UACC-257 melanoma = test system: UACC-257 melanoma
SNB-78 CNS = test system: SNB-78 CNS
SF-295 CNS = test system: SF-295 CNS
CAKI-1 renal = test system: CAKI-1 renal
DLD-1 colon = test system: DLD-1 colon
SR leukemia = test system: SR leukemia
KM12 colon = test system: KM12 colon
OVCAR-5 ovarian = test system: OVCAR-5 ovarian

N#CNCC(COCc1ccccc1)c1ccccc1 (centres undefined)
TGI (SF-539 CNS): > 100 µM
TGI (HCT-116 colon): > 100 µM
TGI (HL-60(TB) leukemia): > 100 µM
TGI (DMS 114 small cell lung): > 100 µM
TGI (NCI-H460 lung): > 100 µM
TGI (HCC-2998 colon): > 100 µM
TGI (SK-OV-3 ovarian): > 100 µM
TGI (786-0 renal): > 100 µM
TGI (OVCAR-4 ovarian): > 100 µM
TGI (HOP-62 NSCLC): > 100 µM
TGI (UACC-62 melanoma): > 100 µM
TGI (K-562 leukemia): > 100 µM
TGI (OVCAR-8 ovarian): > 100 µM
TGI (NCI-H226 lung): > 100 µM
TGI (A498 renal): > 100 µM
TGI (U251 CNS): > 100 µM
TGI (SN12C renal): > 100 µM
TGI (IGROV1 ovarian): > 100 µM
TGI (SK-MEL-5 melanoma): > 100 µM
TGI (TK-10 renal): > 100 µM
TGI (UO-31 renal): > 100 µM
TGI (COLO 205 colon): > 100 µM
TGI (EKVX NSCLC): > 100 µM
TGI (NCI-H522 lung): > 100 µM
TGI (HOP-18 NSCLC): > 100 µM
TGI (SNB-75 CNS): > 100 µM
TGI (HOP-92 NSCLC): > 100 µM
TGI (RXF-631 renal): > 100 µM
TGI (M19-MEL melanoma): > 100 µM
TGI (KM20L2 colon): > 100 µM
TGI (HCT-15 colon): > 100 µM
TGI (MOLT-4 leukemia): > 100 µM
TGI (SK-MEL-28 melanoma): > 100 µM
TGI (M14 melanoma): > 100 µM
TGI (ACHN renal): > 100 µM
TGI (XF 498 CNS): > 100 µM
TGI (SK-MEL-2 melanoma): > 100 µM
TGI (MALME-3M melanoma): > 100 µM
TGI (SNB-19 CNS): > 100 µM
TGI (LOX IMVI melanoma): > 100 µM
TGI (SF-268 CNS): > 100 µM
TGI (DMS 273 small cell lung): > 100 µM
TGI (SW-620 colon): > 100 µM
TGI (CCRF-CEM leukemia): > 100 µM
TGI (A549 NSCLC): > 100 µM
TGI (RPMI-8226 leukemia): > 100 µM
TGI (RXF 393 renal): > 100 µM
TGI (NCI-H23 lung): > 100 µM

CC1OC(n2cc(Cl)c(=O)[nH]c2=O)C=C(OC(=O)c2ccccc2)C1=O (centres undefined)
TGI (OVCAR-3 ovarian): > 100 µM
TGI (SF-539 CNS): > 100 µM
TGI (HL-60(TB) leukemia): > 100 µM
TGI (DMS 114 small cell lung): > 100 µM
TGI (NCI-H460 lung): > 100 µM
TGI (SK-OV-3 ovarian): > 100 µM
TGI (HT29 colon): > 100 µM
TGI (786-0 renal): > 100 µM
TGI (UACC-257 melanoma): > 100 µM
TGI (SNB-78 CNS): > 100 µM
TGI (OVCAR-4 ovarian): > 100 µM
TGI (SF-295 CNS): > 100 µM
TGI (HOP-62 NSCLC): > 100 µM
TGI (UACC-62 melanoma): > 100 µM
TGI (K-562 leukemia): > 100 µM
TGI (CAKI-1 renal): > 100 µM
TGI (OVCAR-8 ovarian): > 100 µM
TGI (U251 CNS): > 100 µM
TGI (SN12C renal): > 100 µM
TGI (IGROV1 ovarian): > 100 µM
TGI (SK-MEL-5 melanoma): > 100 µM
TGI (TK-10 renal): > 100 µM
TGI (UO-31 renal): > 100 µM
TGI (COLO 205 colon): > 100 µM
TGI (EKVX NSCLC): > 100 µM
TGI (HOP-18 NSCLC): > 100 µM
TGI (SNB-75 CNS): > 100 µM
TGI (HOP-92 NSCLC): > 100 µM
TGI (RXF-631 renal): > 100 µM
TGI (M19-MEL melanoma): > 100 µM
TGI (KM20L2 colon): > 100 µM
TGI (HCT-15 colon): > 100 µM
TGI (MOLT-4 leukemia): > 100 µM
TGI (SK-MEL-28 melanoma): > 100 µM
TGI (M14 melanoma): > 100 µM
TGI (DLD-1 colon): > 100 µM
TGI (ACHN renal): > 100 µM
TGI (XF 498 CNS): > 100 µM
TGI (SK-MEL-2 melanoma): > 100 µM
TGI (MALME-3M melanoma): > 100 µM
TGI (SNB-19 CNS): > 100 µM
TGI (LOX IMVI melanoma): > 100 µM
TGI (DMS 273 small cell lung): > 100 µM
TGI (SW-620 colon): > 100 µM
TGI (CCRF-CEM leukemia): > 100 µM
TGI (A549 NSCLC): > 100 µM
TGI (RPMI-8226 leukemia): > 100 µM
TGI (RXF 393 renal): > 100 µM
TGI (NCI-H23 lung): > 100 µM

O=C(CN1CCN(c2cccc(Cl)c2)CC1)N1CCc2c([nH]c3ccccc23)C1c1cccnc1 (centres undefined)
TGI (OVCAR-3 ovarian): 42.2 µM
TGI (SF-539 CNS): 42.3 µM
TGI (HCT-116 colon): 17 µM
TGI (DMS 114 small cell lung): 39.4 µM
TGI (NCI-H460 lung): 33.1 µM
TGI (HCC-2998 colon): 21.6 µM
TGI (SK-OV-3 ovarian): > 100 µM
TGI (HT29 colon): 15.9 µM
TGI (786-0 renal): 44.3 µM
TGI (UACC-257 melanoma): 35.4 µM
TGI (SNB-78 CNS): > 100 µM
TGI (OVCAR-4 ovarian): 75.7 µM
TGI (SF-295 CNS): 50.8 µM
TGI (HOP-62 NSCLC): 63.9 µM
TGI (UACC-62 melanoma): 39.3 µM
TGI (K-562 leukemia): 17.8 µM
TGI (CAKI-1 renal): 54.7 µM
TGI (OVCAR-8 ovarian): > 100 µM
TGI (A498 renal): 67.9 µM
TGI (U251 CNS): 48.8 µM
TGI (SN12C renal): > 100 µM
TGI (SR leukemia): 7.19 µM
TGI (IGROV1 ovarian): > 100 µM
TGI (SK-MEL-5 melanoma): 32.6 µM
TGI (TK-10 renal): > 100 µM
TGI (UO-31 renal): 57.7 µM
TGI (EKVX NSCLC): 94.1 µM
TGI (NCI-H522 lung): 48.6 µM
TGI (HOP-18 NSCLC): 97.8 µM
TGI (SNB-75 CNS): 26.6 µM
TGI (HOP-92 NSCLC): 42 µM
TGI (RXF-631 renal): 40.4 µM
TGI (M19-MEL melanoma): 68.6 µM
TGI (KM20L2 colon): 11.7 µM
TGI (HCT-15 colon): > 100 µM
TGI (MOLT-4 leukemia): 6.94 µM
TGI (KM12 colon): 20.2 µM
TGI (SK-MEL-28 melanoma): > 100 µM
TGI (M14 melanoma): 19.4 µM
TGI (DLD-1 colon): > 100 µM
TGI (ACHN renal): > 100 µM
TGI (XF 498 CNS): 35.9 µM
TGI (SNB-19 CNS): > 100 µM
TGI (SF-268 CNS): > 100 µM
TGI (DMS 273 small cell lung): 84.5 µM
TGI (OVCAR-5 ovarian): 45.2 µM
TGI (SW-620 colon): 52 µM
TGI (CCRF-CEM leukemia): 17.8 µM
TGI (A549 NSCLC): > 100 µM
TGI (RPMI-8226 leukemia): 5.26 µM
TGI (RXF 393 renal): 14.8 µM
TGI (NCI-H23 lung): 50.3 µM
